Patent US7371864B2, “Crystalline forms of a factor Xa inhibitor” (Bristol-Myers Squibb Company, priority 2004, dated 2008)

Tests used:
[1] = Moisture sorption isotherms (VTI SGA-100 Symmetric Vapor Analyzer); assay type: physicochemical; settings: 25° C., 4-95% RH
Experimental: Moisture sorption isotherms for N-1 were collected in a VTI SGA-100 Symmetric Vapor Analyzer using about 10 mg sample. The sample was dried at 60° C. until the loss rate of 0.0005 wt %/min was obtained for 10 minutes. The sample was tested at 25° C. and 4, 5, 15, 25, 35, 45, 50, 65, 75, 85, and 95% RH. Equilibration at each RH was reached when the rate of 0.0003 wt %/min for 35 minutes or a maximum of 600 minutes was achieved.

[2] = Relative thermodynamic stability of crystalline forms; assay type: physicochemical

Q: For `COc1ccc(-n2nc(C(C)(C)O)c3c2C(=O)N(c2ccc(-n4ccccc4=O)cc2)CC3)cc1` [Form N-1, 3-(1-hydroxy-1-methyl-ethyl)-1-(4-methoxy-phenyl)-6-[4-(2-oxo-2H-pyridin-1-yl)-phenyl]-1,4,5,6-tetrahydro-pyrazolo[3,4-c]pyridin-7-one], which “hygroscopicity from moisture sorption isotherms” value [1] is on record?
A: essentially non-hygroscopic

Q: And the “stability relative to Form N-3 (monotropic relationship)” value ([2]; all temperatures, inferred from Form N-3 melting ˜40° C. lower than Form N-1)?
A: more stable at all temperatures

Q: What about the “thermodynamic stability relative to other crystalline forms” value ([2]; room temperature) of the same compound?
A: thermodynamically more stable form
